Assay [1] addresses T1, PC-TP (Homo sapiens, UniProt Q9UKL6).
T1 sequence (Q9UKL6 1-214): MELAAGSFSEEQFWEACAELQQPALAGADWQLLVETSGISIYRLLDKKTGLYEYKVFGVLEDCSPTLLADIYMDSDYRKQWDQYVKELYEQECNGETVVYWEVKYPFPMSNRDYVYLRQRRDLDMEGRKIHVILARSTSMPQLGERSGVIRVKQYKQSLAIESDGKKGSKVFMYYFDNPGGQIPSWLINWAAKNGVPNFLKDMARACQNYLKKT
Nature of the assay: PC-TP inhibition assay (Wagle et al. method). It counts as biochemical. Particulars: for IC50: Table 1, concentration value; for Activity (PC-TP), result in words: compound fluorescence in the fluorescence-based assay. Here is the method:
(§1) The compounds in Table 1 and 2 were assayed for their ability to inhibit PC-TP and StarD10, respectively, using a known assay method (see Wagle et al., 2008. Anal. Biochem. 383:85-92, which is incorporated herein by reference in its entirety). Further, certain compounds were also tested for their ability to inhibit StarD7 (see Table 2).

The target of assay [2] is T2, StarD10 (Homo sapiens, UniProt Q9Y365).
T2 sequence (Q9Y365 1-291): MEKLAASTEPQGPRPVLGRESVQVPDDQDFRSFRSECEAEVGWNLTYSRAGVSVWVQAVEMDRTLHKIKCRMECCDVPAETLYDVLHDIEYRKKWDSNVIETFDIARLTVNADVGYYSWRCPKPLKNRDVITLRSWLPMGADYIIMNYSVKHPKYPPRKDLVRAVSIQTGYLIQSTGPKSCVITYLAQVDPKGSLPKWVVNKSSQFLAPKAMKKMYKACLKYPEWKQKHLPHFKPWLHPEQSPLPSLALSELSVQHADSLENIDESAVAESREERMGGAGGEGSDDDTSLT
Put plainly: StarD10 inhibition assay. In kind it is biochemical. Here is the method:
as §1

Compound `Cc1cc(C)nc(NS(=O)(=O)c2ccc(NC(=S)NC(=O)c3ccc(Cl)cc3Cl)cc2)n1` [Compound 1, 2,4-dichloro-N-(4-(N-(4,6-dimethyl-pyrimidin-2-yl)sulfamoyl)phenylcarbamothioyl) benzamide] returned an IC50 in assay [1] of 3.2 µM. Regarding `Cc1cc(C)nc(NS(=O)(=O)c2ccc(NC(=S)NC(=O)c3ccc(F)cc3)cc2)n1` [Compound 2, N-(4-(N-(4,6-dimethylpyrimidin-2-yl)sulfamoyl)phenylcarbamothioyl)-4-fluorobenzamide], in assay [1], testing at 100 µM gave an inhibition of 55%.

In turn, `Cc1cc(C)nc(NS(=O)(=O)c2ccc(NC(=S)NC(=O)c3ccccc3)cc2)n1` [Compound 3, N-(4-(N-(4,6-dimethylpyrimidin-2-yl)sulfamoyl)phenylcarbamothioyl) benzamide] displayed an inhibition at 100 µM in assay [1] of 45%. In assay [1], `Cc1cc(C)nc(NS(=O)(=O)c2ccc(NC(=O)NC(=O)c3ccccc3Cl)cc2)n1` [Compound 5, 2-chloro-N-(4-(N-(4,6-dimethylpyrimidin-2-yl)sulfamoyl)phenylcarbamoyl) benzamide] returned an IC50 of 30 µM. Consider `Cc1cc(C)nc(NS(=O)(=O)c2ccc(NC(=O)NC(=O)c3ccc(Cl)cc3)cc2)n1` [Compound 6, 4-chloro-N-(4-(N-(4,6-dimethylpyrimidin-2-yl)sulfamoyl)phenylcarbamoyl) benzamide], for which, in assay [1], half-maximal inhibition (IC50) was put at 26 µM.

On to `Cc1cc(C)nc(NS(=O)(=O)c2ccc(NC(=O)NC(=O)c3ccc(Cl)cc3Cl)cc2)c1` [Compound 7, 2,4-dichloro-N-(4-(N-(4,6-dimethylpyridin-2-yl)sulfamoyl)phenylcarbamoyl) benzamide], for which 5 µM corresponded to half-maximal inhibition in assay [1] (IC50). This IC50 is about 5.2-fold lower than that of the compound before. As for `Cc1cc(C)nc(NS(=O)(=O)c2ccc(NC(=O)NC(=O)c3cccc(Cl)c3Cl)cc2)n1` [Compound 9, 2,3-dichloro-N-(4-(N-(4,6-dimethylpyrimidin-2-yl)sulfamoyl)phenylcarbamoyl) benzamide], the IC50 in assay [2] is 39 µM; in assay [1], 3.2 µM.

Compound `Cc1cc(C)nc(NS(=O)(=O)c2ccc(NC(=O)NC(=O)c3ccc(Cl)c(Cl)c3)cc2)n1` [Compound 10, 3,4-dichloro-N-(4-(N-(4,6-dimethylpyrimidin-2-yl)sulfamoyl)phenyl-carbamoyl)benzamide] returned an IC50 in assay [1] of 30 µM. Turning to `Cc1cc(C)nc(NS(=O)(=O)c2ccc(N(C)C(=O)NC(=O)c3ccc(Cl)cc3Cl)cc2)n1` [Compound 11, 2,4-dichloro-N-((4-(N-(4,6-dimethylpyrimidin-2-yl)sulfamoyl)phenyl)(methyl)carbamoyl)benzamide], in assay [1], the IC50 was more than 50 µM. Regarding `Cc1cc(C)nc(N(C)S(=O)(=O)c2ccc(NC(=O)NC(=O)c3ccc(Cl)cc3Cl)cc2)n1` [Compound 12, 2,4-dichloro-N-(4-(N-(4,6-dimethylpyrimidin-2-yl)-N-methylsulfamoyl)phenylcarbamoyl) benzamide], the figures for the IC50 in assay [2] and in assay [1] were 11 µM and 2.3 µM, respectively. `Cc1cc(NS(=O)(=O)c2ccc(NC(=O)NC(=O)c3ccc(Cl)cc3Cl)cc2)nc(C)n1` [Compound 13, 2,4-dichloro-N-(4-(N-(2,6-dimethylpyrimidin-4-yl)sulfamoyl)phenylcarbamoyl) benzamide]: the IC50 is 20 µM in assay [2] and 2.3 µM in assay [1]. `Cc1cc(C)cc(NS(=O)(=O)c2ccc(NC(=O)NC(=O)c3ccc(Cl)cc3Cl)cc2)c1` [Compound 14] registered an IC50 in assay [1] of 20 µM.

As to `Cc1cc(C)nc(NS(=O)(=O)c2ccc(NC(=O)N(C)C(=O)c3ccc(Cl)cc3Cl)cc2)n1` [Compound 15, 2,4-dichloro-N-(4-(N-(4,6-dimethylpyrimidin-2-yl)sulfamoyl)phenylcarbamoyl)-N-methylbenzamide], the IC50 was determined as 17 µM in assay [2] and 8 µM in assay [1]. In assay [1], `COc1ccc(NC(=O)C(Sc2cccc[n+]2[O-])c2ccccc2)cc1Cl` (centres unmarked) [Compound 17, 2-(2-(3-chloro-4-methoxyphenylamino)-2-oxo-1-phenylethylthio)pyridine 1-oxide] gave an IC50 of 20 µM. `O=C(Nc1cccc(C(F)(F)F)c1)C(Sc1cccc[n+]1[O-])c1ccccc1` (centres unmarked) [Compound 19, 2-(2-oxo-1-phenyl-2-(3-(trifluoromethyl)phenylamino)ethylthio)pyridine 1-oxide] gave an IC50 in assay [1] of 11 µM. The same measure, in the same setting: for `O=C(Nc1cc(C(F)(F)F)cc(C(F)(F)F)c1)C(Sc1cccc[n+]1[O-])c1ccccc1` (centres unmarked) [Compound 20, 2-(2-(3,5-bis(trifluoromethyl)phenylamino)-2-oxo-1-phenylethylthio)pyridine 1-oxide] the value was 13 µM; for `O=C(Nc1cc(Cl)cc(Cl)c1)C(Sc1cccc[n+]1[O-])c1ccccc1Cl` (centres unmarked) [Compound 21, 2-(1-(2-chlorophenyl)-2-(3,5-dichlorophenylamino)-2-oxoethylthio)pyridine 1-oxide], 15 µM; for `COc1ccccc1C(Sc1cccc[n+]1[O-])C(=O)Nc1cc(Cl)cc(Cl)c1` (centres unmarked) [Compound 22, 2-(2-(3,5-dichlorophenylamino)-1-(2-methoxyphenyl)-2-oxoethylthio)pyridine 1-oxide], 4.1 µM.

Compound `O=C(Nc1cc(Cl)cc(Cl)c1)C(Sc1cccc[n+]1[O-])c1cccc2ccccc12` (centres unmarked) [Compound 23, 2-(2-(3,5-dichlorophenylamino)-1-(naphthalen-1-yl)-2-oxoethylthio)pyridine 1-oxide] showed a half-maximal inhibitory concentration (IC50) in assay [1] of 12 µM. In turn, `O=C(Nc1cc(Cl)cc(Cl)c1)C(Sc1cc2ccccc2c[n+]1[O-])c1ccccc1` (centres unmarked) [Compound 24, 3-(2-(3,5-dichlorophenylamino)-2-oxo-1-phenylethylthio)isoquinoline 2-oxide] displayed an inhibition at 30 µM in assay [1] (at 30 μM) of 25%.

In assay [1], `COc1ccc(C(Sc2cccc[n+]2[O-])C(=O)Nc2cc(Cl)cc(Cl)c2)cc1` (centres unmarked) [Compound 25, 2-(2-(3,5-dichlorophenylamino)-1-(4-methoxyphenyl)-2-oxoethylthio)pyridine 1-oxide] showed an inhibition at 50 µM of 30%. Regarding `O=C(Nc1cc(Cl)cc(Cl)c1)C(Sc1cccc[n+]1[O-])c1ccc2ccccc2c1` (centres unmarked) [Compound 26, 2-(2-(3,5-dichlorophenylamino)-1-(naphthalen-2-yl)-2-oxoethylthio)pyridine 1-oxide], the inhibition at 50 µM in assay [1] was 20%. In turn, `O=C(Nc1ccc(Cl)cc1C(F)(F)F)C(Sc1cccc[n+]1[O-])c1ccccc1` (centres unmarked) [Compound 28, 2-(2-(4-chloro-2-(trifluoromethyl)phenylamino)-2-oxo-1-phenylethylthio)pyridine 1-oxide] displayed a half-maximal inhibitory concentration (IC50) in assay [1] of approximately 50 µM. Take `CCN(CC)CCN(C(=O)Nc1ccc(S(=O)(=O)Nc2nc(C)cc(C)n2)cc1)C(=O)c1ccc(Cl)cc1Cl` [Compound 29, 2,4-dichloro-N-(2-(diethylamino)ethyl)-N-((4-(N-(4,6-dimethylpyrimidin-2-yl)sulfamoyl)phenyl)carbamoyl)benzamide]: the “Activity (PC-TP), result in words” value in assay [1] is listed as “High fluoroescense”. Take `CCN(CC)CCN(c1nc(C)cc(C)n1)S(=O)(=O)c1ccc(NC(=O)NC(=O)c2ccc(Cl)cc2Cl)cc1` [Compound 30, 2,4-dichloro-N-((4-(N-(2-(diethylamino)ethyl)-N-(4,6-dimethylpyrimidin-2-yl)sulfamoyl)phenyl)carbamoyl)benzamide]: the “Activity (PC-TP), result in words” value in assay [1] is reported as “High fluorescense”. Take `O=C(Nc1cc(C(F)(F)F)ccc1Cl)C(Sc1cccc[n+]1[O-])c1ccccc1` (centres unmarked) [Compound 31, 2-(2-(2-chloro-5-(trifluoromethyl)phenylamino)-2-oxo-1-phenylethylthio)pyridine 1-oxide]: the IC50 in assay [1] is more than 100 µM. Compound `CCOc1ccccc1NC(=O)C(Sc1cccc[n+]1[O-])c1ccccc1` (centres unmarked) [Compound 32, 2-(2-(2-ethoxyphenylamino)-2-oxo-1-phenylethylthio)pyridine 1-oxide] displayed an IC50 in assay [1] of more than 100 µM. For `O=C(Nc1ccccc1Cl)C(Sc1cccc[n+]1[O-])c1ccccc1` (centres unmarked) [Compound 33, 2-(2-(2-chlorophenylamino)-2-oxo-1-phenylethylthio)pyridine 1-oxide], the half-inhibitory concentration (IC50) in assay [2] is 23 µM; in assay [1], 15 µM. With `COc1ccccc1NC(=O)C(Sc1cccc[n+]1[O-])c1ccccc1` (centres unmarked) [Compound 34, 2-(2-(2-methoxyphenylamino)-2-oxo-1-phenylethylthio)pyridine 1-oxide], the results for the IC50 in assay [2] and in assay [1] were 15 µM and 4 µM, respectively.

Broadly, the IC50 is the concentration at which inhibition is half-maximal. A low value points to greater potency. In general, inhibition refers to how much of the control response was suppressed. A low value points to a response near the control.

(Values after patent US9126938B2, “Phosphatidylcholine transfer protein inhibitors” (The Brigham and Women's Hospital, Inc., priority 2009, dated 2015).)
